Where a SMILES comes first, the peptide text is derived from it. [ ]: non-standard residue; d: D form. Sar = CNCC(=O)O A value given as a limit tells only on which side of the number the result lay.

What all share (type): cell-based
Experiment [1] addresses T1, human AT1R (Homo sapiens, UniProt P30556).
T1 sequence (P30556 1-359): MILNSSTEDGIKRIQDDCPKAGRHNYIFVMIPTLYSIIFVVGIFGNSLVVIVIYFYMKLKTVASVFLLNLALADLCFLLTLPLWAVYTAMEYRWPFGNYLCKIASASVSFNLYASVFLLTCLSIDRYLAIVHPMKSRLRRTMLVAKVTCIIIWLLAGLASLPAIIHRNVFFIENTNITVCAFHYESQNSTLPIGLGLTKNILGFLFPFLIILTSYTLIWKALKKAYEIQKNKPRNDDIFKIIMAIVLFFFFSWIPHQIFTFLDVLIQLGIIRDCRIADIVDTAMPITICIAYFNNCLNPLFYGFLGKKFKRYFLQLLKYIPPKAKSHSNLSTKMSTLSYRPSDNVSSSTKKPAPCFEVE
As to the kind of experiment: IP1 accumulation assay (IP1 G-protein assay), human AT1R.

Experiment [2] addresses T2, rat AT1aR (Rattus norvegicus, UniProt P25095).
T2 sequence (P25095 1-359): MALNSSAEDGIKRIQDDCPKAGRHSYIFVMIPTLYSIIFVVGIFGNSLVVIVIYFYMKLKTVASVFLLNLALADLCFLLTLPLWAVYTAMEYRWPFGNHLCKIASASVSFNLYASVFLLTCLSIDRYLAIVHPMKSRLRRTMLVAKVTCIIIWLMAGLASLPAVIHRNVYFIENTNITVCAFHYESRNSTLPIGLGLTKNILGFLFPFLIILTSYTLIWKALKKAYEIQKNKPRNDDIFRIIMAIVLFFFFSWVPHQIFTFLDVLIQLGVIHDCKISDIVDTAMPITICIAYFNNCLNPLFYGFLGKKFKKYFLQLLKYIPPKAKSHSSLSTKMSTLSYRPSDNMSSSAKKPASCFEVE
As to the kind of experiment: IP1 accumulation assay (IP1 G-protein assay), rat AT1aR. The conditions noted are these: for Emax: read-out: Span (relative to hAngII).

In experiment [3] the target is T1, human AT1R. The experiment can be described thus: beta-arrestin2 recruitment assay (PathHunter), human AT1R. The conditions noted are these: for Emax: 1 h, read-out: Span (relative to hAngII). In a few lines:
(§1)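 PathHunter enzyme-complementation assay in HEK293 cells stably expressing ProLink-tagged human AT1R or rat AT1aR; peptides (final 100 μM–1 pM) in HBSS/20 mM HEPES for 60 min at 37 °C. Detection reagent 60 min at room temperature; β-arrestin-2 recruitment read as relative luminescence.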
For orientation: Arrestin recruitment assays detect the binding of arrestin to an activated receptor.

The target of experiment [4] is T2, rat AT1aR. The experiment can be described thus: beta-arrestin2 recruitment assay (PathHunter), rat AT1aR. The conditions noted are these: for Emax: 1 h, read-out: Span (relative to hAngII). In a few lines: as §1

For `CNCC(=O)N[C@@H](CCCNC(=N)N)C(=O)N[C@H](C(=O)N[C@@H](Cc1ccc(O)cc1)C(=O)N1CCC[C@H]1C(=O)N[C@@H](Cc1c[nH]cn1)C(=O)N1CCC[C@H]1C(=O)N[C@@H](C)C(=O)O)C(C)C` [SEQ ID NO: 1, Sar-Arg-Val-Tyr-Pro-His-Pro-Ala] (H-[Sar]RVYPHPA-OH), the EC50 is > 10000 nM on human AT1R [1] (read-out: EC50); > 0.631 nM at human AT1R [1] (read-out: pEC50 (converted)); > 0.6 nM at rat AT1aR [2] (read-out: EC50); > 0.631 nM on rat AT1aR [2] (read-out: pEC50 (converted)); > 3.2 nM on human AT1R [3] (read-out: EC50); > 3.16 nM on human AT1R [3] (read-out: pEC50 (converted)). For the same compound, the EC50 on rat AT1aR [4] (read-out: EC50) is > 3.2 nM; on rat AT1aR [4] (read-out: pEC50 (converted)) it was > 3.16 nM. In addition, the Emax is < 104% on rat AT1aR [2], < 101% on human AT1R [3] and < 105% on rat AT1aR [4].

Consider `CNCC(=O)N[C@@H](CCCNC(=N)N)C(=O)N[C@H](C(=O)N[C@@H](Cc1ccc(O)cc1)C(=O)N1CCC[C@H]1C(=O)N[C@@H](Cc1c[nH]cn1)C(=O)N1CCC[C@H]1C(=O)N[C@H](C)C(=O)O)C(C)C` [SEQ ID NO: 60, Sar-Arg-Val-Tyr-Pro-His-Pro-D-Ala] (H-[Sar]RVYPHP[dA]-OH), for which the EC50 at human AT1R [1] (read-out: EC50) was > 1.3 nM; at human AT1R [1] (read-out: pEC50 (converted)) it was > 0.631 nM; at rat AT1aR [2] (read-out: EC50), > 0.6 nM; at rat AT1aR [2] (read-out: pEC50 (converted)), > 0.631 nM; at human AT1R [3] (read-out: EC50), > 3.2 nM; at human AT1R [3] (read-out: pEC50 (converted)) it was > 3.16 nM. Also, the figures for the EC50 on rat AT1aR [4] (read-out: EC50) and on rat AT1aR [4] (read-out: pEC50 (converted)) were > 3.2 nM and > 3.16 nM, respectively. In addition, the Emax at human AT1R [1] (read-out: Span (relative to hAngII)) was < 103%; on rat AT1aR [2], < 104%; on human AT1R [3], < 101%; at rat AT1aR [4], < 105%.

(Values after patent US8946142B2, “Beta-arrestin effectors and compositions and methods of use thereof” (Trevena, Inc., priority 2012, dated 2015).)
